Assay results reported in patent US20100267561A1, “HERBICIDAL PYRIDAZINONE DERIVATIVES” (priority 2007, published 2010).

Assays:
Assay type in all cases: in vivo
[1] = system: large crabgrass (Digitaria sanguinalis); assay: Test A pre-/postemergence plant response
Method in brief: (§1)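 Greenhouse pot test: loam–sand soil; pre- and postemergence sprays applied same day; post plants 2–10 cm, 1–2 leaves. Readout ~10 d, visual % injury vs untreated (0 = none, 100 = complete control).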

[2] = system: barnyardgrass (Echinochloa crus-galli); assay: Test A pre-/postemergence plant response
Method in brief: as §1

[3] = system: morningglory (Ipomoea coccinea); assay: Test A pre-/postemergence plant response
Method in brief: as §1

corn (Zea mays) = assay: Test A pre-/postemergence plant response
Method in brief: as §1

[4] = system: pigweed (Amaranthus retroflexus); assay: Test A pre-/postemergence plant response
Method in brief: as §1

[5] = system: johnsongrass (Sorghum halepense); assay: Test B pre-/postemergence plant response
Method in brief: (§2)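 Visual scoring from 0 (no effect) to 100 (complete control) against untreated controls was done 13 to 15 days after greenhouse treatment. Chemicals were formulated in a surfactant-containing non-phytotoxic solvent and applied to soil preemergence or to 1- to 4-leaf (2-18 cm) plants postemergence.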

[6] = system: Italian ryegrass (Lolium multiflorum); assay: Test B pre-/postemergence plant response
Method in brief: as §2

[7] = system: bermudagrass (Cynodon dactylon); assay: Test B pre-/postemergence plant response
Method in brief: as §2

[8] = system: winter barley (Hordeum vulgare); assay: Test B postemergence plant response; conditions: for Plant response rating, Barley: Postemergence
Method in brief: (§3)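 Visual injury ratings on a 0–100 scale, where 100 means complete control, were made 13 to 15 days after postemergence treatment of greenhouse-grown plants at the 1- to 4-leaf stage.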

[9] = system: chickweed (Stellaria media); assay: Test B postemergence plant response; conditions: for Plant response rating, Chickweed: Postemergence
Method in brief: as §3

[10] = system: canarygrass (Phalaris minor); assay: Test B postemergence plant response; conditions: for Plant response rating, Canarygrass: Postemergence
Method in brief: as §3

[11] = system: windgrass (Apera spica-venti); assay: Test B postemergence plant response; conditions: for Plant response rating, Windgrass: Postemergence
Method in brief: as §3

[12] = Postemergence, 125 g ai/ha, 0 to 100 scale, 0 no effect, 100 complete control
[13] = Postemergence, 500 g ai/ha, 0 to 100 scale, 0 no effect, 100 complete control
[14] = Preemergence, 125 g ai/ha, 0 to 100 scale (0 no effect, 100 complete control)
[15] = Preemergence, 500 g ai/ha, 0 to 100 scale (0 no effect, 100 complete control)
[16] = Postemergence, 31 g ai/ha, scale 0 to 100, 0 no effect, 100 complete control
[17] = Postemergence, 62 g ai/ha, scale 0 to 100
[18] = Postemergence, 125 g ai/ha, scale 0 to 100
[19] = Postemergence, 250 g ai/ha, scale 0 to 100
[20] = Preemergence, 31 g ai/ha, 0 to 100 scale, 0 no effect, 100 complete control
[21] = Preemergence, 62 g ai/ha, scale 0 to 100
[22] = Preemergence, 125 g ai/ha, scale 0 to 100
[23] = Preemergence, 250 g ai/ha, scale 0 to 100
[24] = 31 g ai/ha, scale 0 to 100, 0 no effect, 100 complete control
[25] = Postemergence, 31 g ai/ha, 0 to 100 scale, 0 no effect, 100 complete control
[26] = Preemergence, 31 g ai/ha, 0 to 100 scale, 0 is no effect, 100 is complete control
[27] = 8 g ai/ha, postemergence, 0-100 scale
[28] = Postemergence, 16 g ai/ha, scale 0 to 100
[29] = Postemergence, 31 g ai/ha, scale 0 to 100
[30] = Postemergence, 62 g ai/ha, scale 0 to 100, 0 no effect, 100 complete control
[31] = Preemergence, 31 g ai/ha, scale 0 to 100 (0 no effect, 100 complete control)
[32] = Preemergence, 62 g ai/ha, 0 to 100 scale, 0 no effect, 100 complete control
[33] = Preemergence, 8 g ai/ha, scale 0 to 100
[34] = Preemergence, 16 g ai/ha, scale 0 to 100
[35] = 62 g ai/ha, scale 0 to 100, 0 no effect, 100 complete control

Cc1nn(C)c(=O)c(-n2nc(-c3ccc(Cl)cc3)cc2C)c1O [Compound 15]
90: Plant response rating, Crabgrass, Large [1, 12] | Plant response rating, Corn (corn (Zea mays); [13]) | Plant response rating, Corn (corn (Zea mays); [15]) | Plant response rating, Barley ([8]; 125 g ai/ha, scale 0 to 100) | Plant response rating, Windgrass [11, 24] | Plant response rating, Windgrass ([11]; 62 g ai/ha, scale 0 to 100)
85: Plant response rating, Canarygrass ([10]; 125 g ai/ha, scale 0 to 100)
10: Plant response rating, Barley [8, 24] | Plant response rating, Barley ([8]; 62 g ai/ha, scale 0 to 100)
80: Plant response rating, Crabgrass, Large [1, 14] | Plant response rating, Johnsongrass [5, 17]
98: Plant response rating, Johnsongrass [5, 22] | Plant response rating, Ryegrass, Italian [6, 16] | Plant response rating, Bermudagrass [7, 20] | Plant response rating, Bermudagrass [7, 21]
35: Plant response rating, Canarygrass [10, 24] | Plant response rating, Canarygrass ([10]; 62 g ai/ha, scale 0 to 100)
70: Plant response rating, Corn (corn (Zea mays); [12]) | Plant response rating, Johnsongrass [5, 16] | Plant response rating, Johnsongrass [5, 20] | Plant response rating, Ryegrass, Italian [6, 20] | Plant response rating, Bermudagrass [7, 16]
95: Plant response rating, Johnsongrass [5, 21]
0: Plant response rating, Morningglory [3, 12] | Plant response rating, Morningglory [3, 13] | Plant response rating, Morningglory [3, 14] | Plant response rating, Morningglory [3, 15] | Plant response rating, Pigweed [4, 12] | Plant response rating, Pigweed [4, 13] | Plant response rating, Pigweed [4, 14] | Plant response rating, Pigweed [4, 15] | Plant response rating, Chickweed [9, 24] | Plant response rating, Chickweed ([9]; 62 g ai/ha, scale 0 to 100) | Plant response rating, Chickweed ([9]; 125 g ai/ha, scale 0 to 100) | Plant response rating, Chickweed ([9]; 250 g ai/ha, scale 0 to 100)
50: Plant response rating, Corn (corn (Zea mays); [14])
100: Plant response rating, Crabgrass, Large [1, 13] | Plant response rating, Crabgrass, Large [1, 15] | Plant response rating, Barnyardgrass [2, 12] | Plant response rating, Barnyardgrass [2, 13] | Plant response rating, Barnyardgrass [2, 14] | Plant response rating, Barnyardgrass [2, 15] | Plant response rating, Johnsongrass [5, 18] | Plant response rating, Johnsongrass [5, 19] | Plant response rating, Johnsongrass [5, 23] | Plant response rating, Ryegrass, Italian [6, 17] | Plant response rating, Ryegrass, Italian [6, 18] | Plant response rating, Ryegrass, Italian [6, 19] | Plant response rating, Ryegrass, Italian [6, 21] | Plant response rating, Ryegrass, Italian [6, 22] | Plant response rating, Ryegrass, Italian [6, 23] | Bermudagrass plant response rating ([7]; 250 g ai/ha, preemergence, 0-100 scale) | Plant response rating, Bermudagrass [7, 17] | Plant response rating, Bermudagrass [7, 18] | Plant response rating, Bermudagrass [7, 19] | Plant response rating, Bermudagrass [7, 22] | Plant response rating, Windgrass ([11]; 125 g ai/ha, scale 0 to 100) | Plant response rating, Windgrass ([11]; 250 g ai/ha, scale 0 to 100)

CCCC(=O)Oc1cnn(C)c(=O)c1-n1nc(-c2ccc(Cl)cc2)cc1C [Compound 56]
85: Plant response rating, Johnsongrass [5, 29] | Bermudagrass plant response rating ([7]; Preemergence, 8 g ai/ha, scale 0 to 100 (0 no effect, 100 complete control)) | Plant response rating, Canarygrass ([10]; 16 g ai/ha, scale 0 to 100)
100: Plant response rating, Crabgrass, Large [1, 12] | Plant response rating, Crabgrass, Large [1, 14] | Plant response rating, Barnyardgrass [2, 25] | Plant response rating, Barnyardgrass [2, 12] | Plant response rating, Barnyardgrass [2, 14] | Plant response rating, Corn (corn (Zea mays); [12]) | Plant response rating, Johnsongrass [5, 30] | Plant response rating, Johnsongrass [5, 32] | Plant response rating, Ryegrass, Italian [6, 32] | Plant response rating, Bermudagrass [7, 30] | Plant response rating, Bermudagrass ([7]; Preemergence, 16 g ai/ha, scale 0 to 100 (0 no effect, 100 complete control)) | Plant response rating, Bermudagrass [7, 31] | Plant response rating, Bermudagrass [7, 32]
98: Plant response rating, Ryegrass, Italian [6, 31] | Ryegrass, Italian plant response rating [6, 34]
20: Plant response rating, Windgrass ([11]; 31 g ai/ha, scale 0 to 100) | Plant response rating, Windgrass [11, 35]
80: Plant response rating, Crabgrass, Large [1, 25] | Plant response rating, Barnyardgrass [2, 26] | Plant response rating, Corn (corn (Zea mays); [14])
0: Plant response rating, Morningglory [3, 25] | Plant response rating, Morningglory [3, 12] | Plant response rating, Morningglory [3, 26] | Plant response rating, Morningglory [3, 14] | Plant response rating, Pigweed [4, 25] | Plant response rating, Pigweed [4, 12] | Plant response rating, Pigweed [4, 26] | Plant response rating, Pigweed [4, 14] | Johnsongrass plant response rating [5, 27] | Ryegrass, Italian plant response rating [6, 27] | Barley plant response rating [8, 27] | Chickweed plant response rating [9, 27] | Plant response rating, Chickweed ([9]; 16 g ai/ha, scale 0 to 100) | Plant response rating, Chickweed ([9]; 31 g ai/ha, scale 0 to 100) | Plant response rating, Chickweed [9, 35] | Windgrass plant response rating [11, 27] | Plant response rating, Windgrass ([11]; 16 g ai/ha, scale 0 to 100)
75: Plant response rating, Barley [8, 35]
70: Plant response rating, Crabgrass, Large [1, 26] | Plant response rating, Johnsongrass [5, 31] | Plant response rating, Bermudagrass [7, 28]
65: Plant response rating, Johnsongrass [5, 28] | Johnsongrass plant response rating [5, 34] | Plant response rating, Ryegrass, Italian [6, 30] | Bermudagrass plant response rating [7, 27]
50: Plant response rating, Barley [8, 24] | Canarygrass plant response rating [10, 27]
60: Johnsongrass plant response rating [5, 33] | Plant response rating, Ryegrass, Italian [6, 29] | Ryegrass, Italian plant response rating [6, 33]
95: Plant response rating, Bermudagrass [7, 29] | Plant response rating, Canarygrass [10, 35]
90: Plant response rating, Corn (corn (Zea mays); [25]) | Plant response rating, Canarygrass ([10]; 31 g ai/ha, scale 0 to 100)
40: Plant response rating, Corn (corn (Zea mays); [26]) | Plant response rating, Ryegrass, Italian [6, 28] | Plant response rating, Barley ([8]; 16 g ai/ha, scale 0 to 100, 0 no effect, 100 complete control)
